Molecular target: T1, IRAK4 (Homo sapiens, UniProt Q9NWZ3)
T1 sequence (Q9NWZ3 1-460): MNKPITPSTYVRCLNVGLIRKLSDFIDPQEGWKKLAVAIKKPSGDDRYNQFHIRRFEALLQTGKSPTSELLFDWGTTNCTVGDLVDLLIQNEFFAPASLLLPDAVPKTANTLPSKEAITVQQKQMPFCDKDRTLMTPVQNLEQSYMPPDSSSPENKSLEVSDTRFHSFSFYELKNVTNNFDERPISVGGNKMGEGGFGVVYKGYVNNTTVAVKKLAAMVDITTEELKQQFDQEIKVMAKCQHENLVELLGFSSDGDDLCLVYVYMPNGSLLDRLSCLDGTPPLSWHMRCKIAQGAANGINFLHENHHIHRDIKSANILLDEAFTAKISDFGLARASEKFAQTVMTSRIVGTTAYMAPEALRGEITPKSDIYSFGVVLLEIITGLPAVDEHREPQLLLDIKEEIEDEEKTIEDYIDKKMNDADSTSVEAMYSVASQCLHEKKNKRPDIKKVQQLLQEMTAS
Assay: OCI-LY-10 degradation assay (western blot, % IRAK4 degraded after 4 hours)
Assay type: cell-based
Parameters: endogenous in cells; host or cells: OCI-LY10
Settings: OCI-LY10 cells; for OCI-LY10 % IRAK4 Degradation: IRAK4 degraded after 4 hours, western blot; for OCI-LY10 % IRAK4 Degradation (0.01 uM) / OCI-LY10 % IRAK4 Degradation (0.1 uM) / OCI-LY10 % IRAK4 Degradation (1 uM): 4 hours; for OCI-LY10 % IRAK4 Degradation (0.01 uM): 0.01 uM compound; for OCI-LY10 % IRAK4 Degradation (0.1 uM): 0.1 uM compound; for OCI-LY10 % IRAK4 Degradation (1 uM): 1 uM compound
Outline: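 IRAK4 loss after 4 h at 37° C was scored A (>50%), B (>20-50%) or C (<20%) from infrared western blots of RIPA lysates, 20-25 μg protein per lane. Compound was applied at 0.003-10 μM final to OCI-LY10 cells cultured in RPMI-1640 with 20% FBS and 55 μM 2-ME.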

| SMILES | OCI-LY10 % IRAK4 Degradation | OCI-LY10 % IRAK4 Degradation (0.01 uM) | OCI-LY10 % IRAK4 Degradation (0.1 uM) | OCI-LY10 % IRAK4 Degradation (1 uM) |
| --- | --- | --- | --- | --- |
| N#Cc1cnc2c(cnn2-c2cc(NC3CC3)c(C(=O)NCC(F)COc3cccc4c3C(=O)N(C3CCC(=O)NC3=O)C4=O)cn2)c1 (centres unmarked) [I-173, 6-(5-Cyanopyrazolo[3,4-b]pyridin-1-yl)-4-(cyclopropylamino)-N-[3-[2-(2,6-dioxo-3-piperidyl)-1,3-dioxo-isoindolin-4-yl]oxy-2-fluoro-propyl]pyridine-3-carboxamide] | C (<20% degradation) | – | – | – |
| O=C1CCC(N2C(=O)c3cccc(OCC(F)CNC(=O)c4cnc(Nc5ccc6cnccc6n5)cc4NC4CC4)c3C2=O)C(=O)N1 (centres unmarked) [I-174, 4-(Cyclopropylamino)-N-[3-[2-(2,6-dioxo-3-piperidyl)-1,3-dioxo-isoindolin-4-yl]oxy-2-fluoro-propyl]-6-(1,6-naphthyridin-2-ylamino)pyridine-3-carboxamide] | C (<20% degradation) | – | – | – |
| N#Cc1cnc2c(cnn2-c2cc(NC3CC3)c(-c3cn(CCOCCOCCOCCNc4cccc5c4C(=O)N(C4CCC(=O)NC4=O)C5=O)nn3)cn2)c1 (centres unmarked) [I-175, 1-[4-(cyclopropylamino)-5-[1-[2-[2-[2-[2-[[2-(2,6-dioxo-3-piperidyl)-1,3-dioxo-isoindolin-4-yl]amino]ethoxy]ethoxy]ethoxy]ethyl]triazol-4-yl]-2-pyridyl]pyrazolo[3,4-b]pyridine-5-carbonitrile] | C (<20% degradation) | – | – | – |
| N#Cc1cnc2c(cnn2-c2cc(NC3CC3)c(-c3cn(CCOCCOCCOCCOCCOCCNc4cccc5c4C(=O)N(C4CCC(=O)NC4=O)C5=O)nn3)cn2)c1 (centres unmarked) [I-176, 1-[4-(Cyclopropylamino)-5-[1-[2-[2-[2-[2-[2-[2-[[2-(2,6-dioxo-3-piperidyl)-1,3-dioxo-isoindolin-4-yl]amino]ethoxy]ethoxy]ethoxy]ethoxy]ethoxy]ethyl]triazol-4-yl]-2-pyridyl]pyrazolo[3,4-b]pyridine-5-carbonitrile] | C (<20% degradation) | – | – | – |
| NC(=O)c1nn(-c2ccc(C(=O)NCC#CC#CCNc3cccc4c3C(=O)N(C3CCC(=O)NC3=O)C4=O)cc2)cc1NC(=O)c1coc(-c2ccnc(NCC(F)(F)F)c2)n1 (centres unmarked) [I-177, N-[3-carbamoyl-1-[4-[6-[[2-(2,6-dioxo-3-piperidyl)-1,3-dioxo-isoindolin-4-yl]amino]hexa-2,4-diynylcarbamoyl]phenyl]pyrazol-4-yl]-2-[2-(2,2,2-trifluoroethylamino)-4-pyridyl]oxazole-4-carboxamide] | C (<20% degradation) | – | – | – |
| NC(=O)c1nn(-c2ccc(C(=O)NCC#CC#CCCNc3cccc4c3C(=O)N(C3CCC(=O)NC3=O)C4=O)cc2)cc1NC(=O)c1coc(-c2ccnc(NCC(F)(F)F)c2)n1 (centres unmarked) [I-178, N-[3-carbamoyl-1-[4-[7-[[2-(2,6-dioxo-3-piperidyl)-1,3-dioxo-isoindolin-4-yl]amino]hepta-2,4-diynylcarbamoyl]phenyl]pyrazol-4-yl]-2-[2-(2,2,2-trifluoroethylamino)-4-pyridyl]oxazole-4-carboxamide] | C (<20% degradation) | – | – | – |
| NC(=O)[C@@H](O)C[C@H]1CCc2sc3ncnc(O[C@H]4CC[C@H](N5CCN(CCOCCNc6cccc7c6C(=O)N(C6CCC(=O)NC6=O)C7=O)CC5)CC4)c3c21 (stereo partly drawn) [I-184, T(2R)-3-[(8R)-1-[4-[4-[2-[2-[[2-(2,6-dioxo-3-piperidyl)-1,3-dioxo-isoindolin-4-yl]amino]V ethoxy]ethyl]piperazin-1-yl]cyclohexoxy]-7,8-dihydro-6H-cyclopenta[4,5]thieno[1,2-c]pyrimidin-8-yl]-2-hydroxy-propanamide] | C (<20% degradation) | – | – | – |
| O=C1CCC(N2C(=O)c3ccc(CCCOCCOCCNCc4ccc(-n5cc(NC(=O)c6coc(-c7ccnc(NCC8CC8)c7)n6)c(C(F)(F)F)n5)cc4)cc3C2=O)C(=O)N1 (centres unmarked) [I-187, 2-[2-(Cyclopropylmethylamino)-4-pyridyl]-N-[1-[4-[[2-[2-[3-[2-(2,6-dioxo-3-piperidyl)-1,3-dioxo-isoindolin-5-yl]propoxy]ethoxy]ethylamino]methyl]phenyl]-3-(trifluoromethyl)pyrazol-4-yl]oxazole-4-carboxamide] | B (>20-50% degradation) | – | – | – |
| Cc1ncsc1-c1ccc(CNC(=O)[C@@H]2C[C@@H](O)CN2C(=O)[C@@H](NCCCCCOCCOCCCCCNC(=O)c2ccc(-n3cc(NC(=O)c4coc(-c5ccnc(NCC(F)(F)F)c5)n4)c(C(N)=O)n3)cc2)C(C)(C)C)cc1 [I-188, N-(3-carbamoyl-1-(4-((5-(2-((5-(((S)-1-((2S,4R)-4-hydroxy-2-((4-(4-methylthiazol-5-yl)benzyl)carbamoyl)pyrrolidin-1-yl)-3,3-dimethyl-1-oxobutan-2-yl)amino)pentyl)oxy)ethoxy)pentyl)carbamoyl)phenyl)-1H-pyrazol-4-yl)-2-(2-((2,2,2-trifluoroethyl)amino)pyridin-4-yl)oxazole-4-carboxamide] | C (<20% degradation) | – | – | – |
| N#Cc1ccc2ncc(-c3cccc(NC4CCN(CCCCCOCCOCCCCCNC(=O)COc5cccc6c5C(=O)N(C5CCC(=O)NC5=O)C6=O)C4)n3)n2c1 (centres unmarked) [I-204] | C (<20% degradation) | – | – | – |
| Cc1ncsc1-c1ccc(CNC(=O)[C@@H]2C[C@@H](O)CN2C(=O)[C@@H](NC(=O)COCCCCCOCCCCCNC(=O)CN2CCC(Nc3cccc(-c4cnc5ccc(C#N)cn45)n3)C2)C(C)(C)C)cc1 (some centres unmarked) [I-205] | C (<20% degradation) | – | – | – |
| Cc1ncsc1-c1ccc(CNC(=O)[C@@H]2C[C@@H](O)CN2C(=O)[C@@H](NC(=O)COCCOCCOCCOCCOCCNC(=O)C(F)CNC(=O)c2cnc(Nc3ccc4cnccc4n3)cc2NC2CC2)C(C)(C)C)cc1 (some centres unmarked) [I-207] | C (<20% degradation) | – | – | – |
| N#Cc1ccc2ncc(-c3cccc(NC4CCN(CCOCCOCCOCCOCCOCCNc5cccc6c5C(=O)N(C5CCC(=O)NC5=O)C6=O)C4)n3)n2c1 (centres unmarked) [I-208] | C (<20% degradation) | – | – | – |
| Cc1ncsc1-c1ccc(CNC(=O)[C@@H]2C[C@@H](O)CN2C(=O)[C@@H](NC(=O)COCCOCCOCCOCCOCCN2CCC(Nc3cccc(-c4cnc5ccc(C#N)cn45)n3)C2)C(C)(C)C)cc1 (some centres unmarked) [I-209] | C (<20% degradation) | – | – | – |
| O=C1CCC(N2C(=O)c3cccc(NCCOCCNC(=O)c4ccc(-n5cc(NC(=O)c6coc(-c7ccnc(NCC8CC8)c7)n6)c(C(F)F)n5)cc4)c3C2=O)C(=O)N1 (centres unmarked) [I-211] | – | B (>20-50% degradation) | B (>20-50% degradation) | B (>20-50% degradation) |
| O=C1CCC(N2C(=O)c3cccc(NCCOCCOCCOCCOCCNC(=O)c4ccc(-n5cc(NC(=O)c6coc(-c7ccnc(NCC8CC8)c7)n6)c(C(F)F)n5)cc4)c3C2=O)C(=O)N1 (centres unmarked) [I-212] | – | B (>20-50% degradation) | A (>50% degradation) | A (>50% degradation) |
| NCc1nn(-c2ccc(C(=O)NCCOCCOCCNc3cccc4c3C(=O)N(C3CCC(=O)NC3=O)C4=O)cc2)cc1NC(=O)c1coc(-c2ccnc(NCC(F)(F)F)c2)n1 (centres unmarked) [I-215] | – | A (>50% degradation) | A (>50% degradation) | A (>50% degradation) |
| O=C1CCC(N2C(=O)c3cccc(NCCOCCOCCNC(=O)c4ccc(-n5cc(NC(=O)c6coc(-c7ccnc(NCC8CC8)c7)n6)c(C(F)(F)F)n5)cc4)c3C2=O)C(=O)N1 (centres unmarked) [I-220] | – | B (>20-50% degradation) | B (>20-50% degradation) | B (>20-50% degradation) |
| O=C1CCC(N2C(=O)c3cccc(CCCNCCCCCNC(=O)c4ccc(-n5cc(NC(=O)c6coc(-c7ccnc(NCC8CC8)c7)n6)c(C(F)(F)F)n5)cc4)c3C2=O)C(=O)N1 (centres unmarked) [I-221] | – | B (>20-50% degradation) | B (>20-50% degradation) | A (>50% degradation) |
| O=C1CCC(N2C(=O)c3cccc(NCCNCCOCCNC(=O)c4ccc(-n5cc(NC(=O)c6coc(-c7ccnc(NCC8CC8)c7)n6)c(C(F)(F)F)n5)cc4)c3C2=O)C(=O)N1 (centres unmarked) [I-222] | – | A (>50% degradation) | A (>50% degradation) | A (>50% degradation) |
| CN(CCOCCOCCCc1cccc2c1C(=O)N(C1CCC(=O)NC1=O)C2=O)C(=O)c1ccc(-n2cc(NC(=O)c3coc(-c4ccncc4)n3)c(C(N)=O)n2)cc1 (centres unmarked) [I-226] | – | B (>20-50% degradation) | A (>50% degradation) | A (>50% degradation) |
| CN(CCOCCCc1cccc2c1C(=O)N(C1CCC(=O)NC1=O)C2=O)C(=O)c1ccc(-n2cc(NC(=O)c3coc(-c4ccnc(NCC5CC5)c4)n3)c(C(N)=O)n2)cc1 (centres unmarked) [I-229] | – | C (<20% degradation) | C (<20% degradation) | C (<20% degradation) |
| CN(CCCCCCCCCc1cccc2c1C(=O)N(C1CCC(=O)NC1=O)C2=O)C(=O)c1ccc(-n2cc(NC(=O)c3coc(-c4ccnc(NCC5CC5)c4)n3)c(C(N)=O)n2)cc1 (centres unmarked) [I-230] | – | C (<20% degradation) | C (<20% degradation) | C (<20% degradation) |
